Measurements: paper doi:10.1101/374926v1 (bioRxiv, 2018)
Each block holds one compound with its values, some of them ahead of it.

What was measured:
[1] = system: GR*-eGFP in Saos-2(GIGT) cells; test: Glucocorticoid-induced eGFP translocation; assay type: cell-based, human; settings: 1 μM, 30 min
[2] = system: eGFP-hGal3 in Saos-2 cells; test: Galectin recruitment assay for endosomal damage; assay type: cell-based, human
Saos-2 cells = test: FCS-based Lys9^R endosomal leakage assay; assay type: cell-based, human; settings: for Lys9^R delivery efficiency (DE), cytosol / Lys9^R delivery efficiency (DE), nucleus: 60 min, FCS, n > 10 cells
[3] = system: eGFP-hGal8 in Saos-2 cells; test: Galectin recruitment assay for endosomal damage; assay type: cell-based, human; settings: RNAiMAX 16 μL/mL or LLOMe 1 mM, 1 h
[4] = In vitro FCS diffusion measurement; assay type: physicochemical; settings: Milli-Q water
[5] = 2,500 cells per well in transfection medium

Compound: K^Dex–GPSQPTYPGDDAPVRDLIRFYRDLRRYLNVVTR HRY-CONH2 [1^Dex]
translocation ratio (TR) [1, 5]: 3.0 ± 0.40 | mean translocation ratio (TR) ([1]; cells transfected with non-targeting siRNA, non-treated 1.2 ± 0.1): 2.4 ± 0.3 | translocation ratio (TR) ([1]; complete media): around 2.0 | translocation ratio (TR) ([1]; transfection media): around 3.0

Compound: COC(=O)[C@H](CC(C)C)NC(=O)[C@@H](N)CC(C)C [LLOMe, L-leucyl-L-leucine methyl ester]
vesicular staining compared to the total cell area ([2]; LLOMe 1 mM, 1 hour, corresponds to ERC 400.0): 4% | ERC value routinely obtained ([2]; LLOMe 1 mM, 1 hour, untreated cells around 0.0): ~400.0 | increase of average ERC over untreated cells, eGFP-hGal3 ([2]; RNAiMAX 16 μL/mL or LLOMe 1 mM, 1 h): 147 fold | Lys9^R delivery efficiency (DE), cytosol (Saos-2 cells; LLOMe 0.125 mM, no agent: 3): 3% | Lys9^R delivery efficiency (DE), nucleus (Saos-2 cells; LLOMe 0.125 mM, no agent: 4): 6% | Lys9^R delivery efficiency (DE), cytosol (Saos-2 cells; LLOMe 0.25 mM): 4% | Lys9^R delivery efficiency (DE), nucleus (Saos-2 cells; LLOMe 0.25 mM): 12% | Lys9^R delivery efficiency (DE), cytosol (Saos-2 cells; LLOMe 0.5 mM): 8% | Lys9^R delivery efficiency (DE), nucleus (Saos-2 cells; LLOMe 0.5 mM): 12% | Lys9^R delivery efficiency (DE), cytosol (Saos-2 cells; LLOMe 1.0 mM): 9% | Lys9^R delivery efficiency (DE), nucleus (Saos-2 cells; LLOMe 1.0 mM): 12% | endosomal leakage of Lys9^R (Saos-2 cells; LLOMe titration up to 1 mM, 1 h): no detectable endosomal leakage | increase of average ERC over untreated cells, eGFP-hGal8 [3]: 68 fold

Average τdiff in vitro at 25 °C [4]: 0.064 ± 0.001 ms | Measured D at 25 °C [4]: 206 ± 3 μm^2 s^-1
Compound: Ac-KKKKKKKKK-NH2 [Lys9^UL]

Compound: K^Dex-WYSCNVCGKAFVLSRHLNRHLRVHRRAT-CONH2 [2^Dex]
translocation ratio (TR) [1, 5]: 3.0 ± 0.090 | translocation ratio (TR) ([1]; complete media): around 2.0 | translocation ratio (TR) ([1]; transfection media): around 3.0

Compound: C[C@@H]1C[C@H]2[C@@H]3CCC4=CC(=O)C=C[C@]4(C)[C@@]3(F)[C@@H](O)C[C@]2(C)[C@@]1(O)C(=O)CO [Dex, dexamethasone]
translocation ratio (TR) [1, 5]: 3.4 ± 0.40
